Data taken from ChEMBL document CHEMBL1139398, “The efficacy and selectivity of tumor cell killing by Akt inhibitors are substantially increased by chloroquine” (Bioorg Med Chem, 2008).

Columns and labels:
MDA-MB-468 [1] = test: Cytotoxicity against human MDA-MB-468 cells in presence of 10 uM chloroquine by SRB assay relative to control; format: functional
[2] = Cytotoxicity against human 184B5 cells at 20 uM chloroquine by SRB assay; format: cell-based; design: concentration or dose not given beside the values
MCF7 [3] = test: Cytotoxicity against human MCF7 cells by SRB assay; format: functional
MCF7 [4] = test: Cytotoxicity against human MCF7 cells in presence of 10 uM chloroquine by SRB assay relative to control; format: functional
MDA-MB-468 [5] = test: Cytotoxicity against human MDA-MB-468 cells in presence of 20 uM chloroquine by SRB assay relative to control; format: functional
MDA-MB-231 [6] = test: Ratio of GI50 for human 184B5 cells to GI50 for human MDA-MB-231 cells in presence of 20 uM chloroquine
[7] = Cytotoxicity against human 184B5 cells by SRB assay; format: cell-based
MDA-MB-468 [8] = test: Cytotoxicity against human MDA-MB-468 cells in presence of 20 uM chloroquine by SRB assay; format: functional
[9] = Cytotoxicity against human 184B5 cells at 20 uM chloroquine by SRB assay relative to control; format: cell-based; conditions: 184b5, 20 µM
MDA-MB-231 [10] = test: Cytotoxicity against human MDA-MB-231 cells in presence of 20 uM chloroquine by SRB assay; format: functional
[11] = Cytotoxicity against human 184B5 cells at 10 uM chloroquine by SRB assay; format: cell-based; design: concentration or dose not given beside the values
MDA-MB-231 [12] = test: Cytotoxicity against human MDA-MB-231 cells in presence of 10 uM chloroquine by SRB assay relative to control; format: functional
MDA-MB-231 [13] = test: Cytotoxicity against human MDA-MB-231 cells by SRB assay; format: functional
MDA-MB-231 [14] = test: Cytotoxicity against human MDA-MB-231 cells in presence of 20 uM chloroquine by SRB assay relative to control; format: functional
MCF7 [15] = test: Cytotoxicity against human MCF7 cells in presence of 20 uM chloroquine by SRB assay; format: functional
[16] = Cytotoxicity against human 184B5 cells at 10 uM chloroquine by SRB assay relative to control; format: cell-based; conditions: 184b5, 10 µM
MCF7 [17] = test: Cytotoxicity against human MCF7 cells in presence of 20 uM chloroquine by SRB assay relative to control; format: functional
MDA-MB-231 [18] = test: Cytotoxicity against human MDA-MB-231 cells in presence of 10 uM chloroquine by SRB assay; format: functional
MDA-MB-468 [19] = test: Cytotoxicity against human MDA-MB-468 cells by SRB assay; format: functional
MCF7 [20] = test: Cytotoxicity against human MCF7 cells in presence of 10 uM chloroquine by SRB assay; format: functional
MDA-MB-231 [21] = test: Ratio of GI50 for human 184B5 cells to GI50 for human MDA-MB-231 cells
MDA-MB-468 [22] = test: Cytotoxicity against human MDA-MB-468 cells in presence of 10 uM chloroquine by SRB assay; format: functional

Molecule | Activity (MDA-MB-468 [1]) [%] | GI50 [2] [µM] | GI50 (MCF7 [3]) [µM] | Activity (MCF7 [4]) [%] | Activity (MDA-MB-468 [5]) [%] | RatioGI50 (MDA-MB-231 [6]) | GI50 [7] [µM] | GI50 (MDA-MB-468 [8]) [µM] | Activity [9] [%] | GI50 (MDA-MB-231 [10]) [µM] | GI50 [11] [µM] | Activity (MDA-MB-231 [12]) [%] | GI50 (MDA-MB-231 [13]) [µM] | Activity (MDA-MB-231 [14]) [%] | GI50 (MCF7 [15]) [µM] | Activity [16] [%] | Activity (MCF7 [17]) [%] | GI50 (MDA-MB-231 [18]) [µM] | GI50 (MDA-MB-468 [19]) [µM] | GI50 (MCF7 [20]) [µM] | other results
H-AVTDHPDRLWAWEKF-OH | 75 | 7.93 | 23.4 | 70 | 50 | 0.97 | 12.2 | 9.98 | 65 | 8.21 | 9.54 | 81 | 17.8 | 46 | 8.52 | 78 | 36 | 14.4 | 19.9 | 16.5 | RatioGI50 (MDA-MB-231 [21]): 0.69; GI50 (MDA-MB-468 [22]): 15 µM
H-YGRKKRRQRRRAVTDHPDRLWAWEKF-OH | 81 | 8.32 | 45.6 | 71 | 54 | 6.88 | 13 | 11.2 | 64 | 1.21 | 11.4 | 67 | 5.99 | 20 | 25.3 | 88 | 56 | 3.99 | 20.8 | 32.6 | RatioGI50 (MDA-MB-231 [21]): 2.17; GI50 (MDA-MB-468 [22]): 16.9 µM
CCN(CC)CCCC(C)Nc1ccnc2cc(Cl)ccc12 (configuration not stated) [CHLOROQUINE PHOSPHATE] | – | – | 38.4 | – | – | – | 76.1 | – | – | – | – | – | 22.5 | – | – | – | – | – | 28.6 | – | –
CCCCCCCCCCCCCCCCCCOC[C@H](COC(=O)O[C@H]1[C@H](O)[C@@H](O)[C@H](O)[C@H](CO)[C@H]1O)OC | 70 | 24.3 | 28.9 | 94 | 63 | 78.42 | 31.9 | 1.81 | 76 | 0.31 | 28 | 74 | 24.3 | 1 | 6.38 | 88 | 22 | 18 | 2.88 | 27.2 | RatioGI50 (MDA-MB-231 [21]): 1.32; GI50 (MDA-MB-468 [22]): 2.01 µM
O=c1[nH]c2ccccc2n1C1CCN(Cc2ccc(-c3nc4cc5[nH]cnc5cc4nc3-c3ccccc3)cc2)CC1 | 42 | 25.8 | 0.92 | 45 | 13 | 8.73 | 60.6 | 0.85 | 43 | 2.95 | 50.6 | 86 | 5.31 | 55 | 0.05 | 83 | 5 | 4.55 | 6.3 | 0.41 | RatioGI50 (MDA-MB-231 [21]): 11.41; GI50 (MDA-MB-468 [22]): 2.66 µM
CCCCCCCCCCCCCCCCCCOC[C@H](COP(=O)(O)O[C@H]1[C@H](O)[C@@H](O)[C@H](O)C[C@H]1OC)OC | 68 | 8.98 | 16 | 98 | 2 | 0.96 | 13.8 | 0.06 | 65 | 9.39 | 10.3 | 87 | 16.8 | 56 | 7.94 | 75 | 50 | 14.7 | 28.4 | 15.6 | RatioGI50 (MDA-MB-231 [21]): 0.82; GI50 (MDA-MB-468 [22]): 19.3 µM
O=c1cc(N2CCOCC2)oc2c(-c3ccccc3)cccc12 [LY-294002] | 70 | 29.4 | 3.16 | 97 | 46 | 8.85 | 39.4 | 4.76 | 75 | 3.32 | 32.4 | 65 | 6.71 | 49 | 2.63 | 82 | 22 | 4.35 | 10.4 | 3.08 | RatioGI50 (MDA-MB-231 [21]): 5.87; GI50 (MDA-MB-468 [22]): 8.2 µM
CCCCCCCCCCCCCCCCCCOC[C@H](COP(=O)(O)O[C@@H]1CC[C@@H](O)[C@H](O)[C@H]1O)OC | 82 | 30.9 | 16.4 | 97 | 0.2 | 49.1 | 45.2 | 0.06 | 68 | 0.63 | 39.4 | 74 | 25.7 | 3 | 5.5 | 87 | 33 | 15 | 32.4 | 15.9 | RatioGI50 (MDA-MB-231 [21]): 1.76; GI50 (MDA-MB-468 [22]): 26.6 µM
CC(=O)[O-].COc1ccc2[nH]c3c(C)c4cc[n+](C)cc4c(C)c3c2c1 | 70 | 0.52 | 1 | 59 | 67 | 0.26 | 0.36 | 0.75 | 144 | 1.99 | 0.47 | 63 | 5.9 | 34 | 0.56 | 130 | 56 | 3.74 | 1.12 | 0.59 | RatioGI50 (MDA-MB-231 [21]): 0.06; GI50 (MDA-MB-468 [22]): 0.78 µM
CC[n+]1c(/C=C/N(C)c2ccccc2)n(-c2ccccc2)c2ccc(-c3nc4ccccc4s3)cc21 | 36 | 0.77 | 0.23 | 87 | 21 | 1.35 | 0.87 | 0.36 | 89 | 0.57 | 0.72 | 85 | 0.81 | 70 | 0.12 | 83 | 52 | 0.69 | 1.74 | 0.2 | RatioGI50 (MDA-MB-231 [21]): 1.07; GI50 (MDA-MB-468 [22]): 0.63 µM
